# Test results as given in patent US9079974B2, “GH-RH analogs with potent agonistic effects” (The University of Miami, priority 2011, dated 2015).
# Entries after “also recorded” stand apart in the source; their conditions may differ. Square brackets hold non-standard residues; d marks the D form. Peptide text beside a SMILES is read from it. * marks the point of attachment. Phe(F5) = N[C@@H](Cc1c(F)c(F)c(F)c(F)c1F)C(=O)O; Desaminotyrosyl = O=C(CCc1ccc(O)cc1)*; NMeY = CN[C@@H](Cc1ccc(O)cc1)C(=O)O; hArg = N=C(N)NCCCC[C@H](N)C(=O)O; Agmatine = N=C(N)NCCCCN*; Nle = CCCC[C@H](N)C(=O)O; Orn = NCCC[C@H](N)C(=O)O; Abu = CC[C@H](N)C(=O)O; Ava = NCCCCC(=O)O; GABA = NCCCC(=O)O
# How the values were obtained:
# [1] = molecular target: T1, GHRH receptor (Homo sapiens, UniProt Q02643); assay: GHRH receptor binding, [His1,125I-Tyr10,Nle27]hGHRH(1-32)NH2 ligand competition, human pituitary membrane homogenates (Table 6); details: [His1,125I-Tyr10,Nle27]hGHRH(1-32)NH2, human pituitary membranes
# T1 construct: Normal human pituitaries were purchased from the National Hormone and Peptide Program; tissue National Hormone and Peptide Program (A. F. Parlow); host or cells: normal human pituitary, membrane fraction
# T1 sequence (Q02643 23-423): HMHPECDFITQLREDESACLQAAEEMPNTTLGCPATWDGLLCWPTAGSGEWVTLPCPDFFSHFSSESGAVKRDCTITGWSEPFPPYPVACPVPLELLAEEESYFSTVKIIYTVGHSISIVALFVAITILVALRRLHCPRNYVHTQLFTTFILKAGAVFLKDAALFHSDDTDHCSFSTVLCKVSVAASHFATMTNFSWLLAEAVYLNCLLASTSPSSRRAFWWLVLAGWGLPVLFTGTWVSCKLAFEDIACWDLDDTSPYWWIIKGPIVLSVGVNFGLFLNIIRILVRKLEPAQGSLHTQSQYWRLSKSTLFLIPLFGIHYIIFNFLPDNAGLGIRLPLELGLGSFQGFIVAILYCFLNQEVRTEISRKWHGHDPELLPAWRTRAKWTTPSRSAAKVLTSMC
# Protocol: Receptor binding assay Ligand competition assay with ^125I-labeled [His^1, Nle^27]hGH-RH(1-32)-NH2 was used to determine the binding affinities of the novel hGH-RH agonists to membrane receptors of rat anterior pituitary cells. The methods used have been described in detail (Halmos G, et al. Receptor 3: 87-97, 1993), here by incorporated by reference. Briefly, radioidonated [His^1, Nle^27]hGH-RH(1-32)-NH2 is prepared by the chloramines-T method. […] IC50 is the dose of the tested peptides causing 50% inhibition of specific binding to receptors.
# (§1) Preparation of human pituitary membrane fraction and receptor binding of GHRH agonists were performed as previously described, by using a sensitive in vitro ligand competition assay based on binding of ^125I-labeled [His^1, Nle^27]hGHRH(1-32)NH2 to human pituitary membrane homogenates. Normal human pituitaries were purchased from the National Hormone and Peptide Program (A. F. Parlow, Los Angeles, County Harbor—UCLA Medical Center, Torrance, Calif.).
# [2] = molecular target: T1, GHRH receptor; assay: GHRH receptor binding, 125I-labeled JV-1-42 ligand competition, human pituitary membrane homogenates (Table 7); details: for IC50: 125I-labeled JV-1-42, human pituitary membranes
# Protocol: as §1, with “JV-1-42” for “[His^1, Nle^27]hGHRH(1-32)NH2”, “Harbor-UCLA” for “Harbor—UCLA”
# [3] = test system: GH release; assay: In vivo GH release after subcutaneous administration; details: rat, s.c.
# Protocol: Blood samples are taken from the jugular vein; 5, 15 and 30 minutes or only 15 and 30 minutes after the injection. The blood samples are centrifuged, plasma is removed and the GH level is measured by ELISA. The results are summarized in terms of potency in Table 9.
SMILES,IC50 [1] [nM],IC50 [2] [nM],Relative affinity (Binding potency) vs JI-38 ([2]; relative to JI-38 = 1),GH response after subcutaneous administration (in words) [3]
"CCCC[C@H](NC(=O)[C@@H](NC(=O)[C@H](CC(=O)O)NC(=O)[C@H](CCC(N)=O)NC(=O)[C@H](CC(C)C)NC(=O)[C@H](CC(C)C)NC(=O)[C@H](CCCN)NC(=O)[C@H](CCCNC(=N)N)NC(=O)[C@H](C)NC(=O)[C@H](CO)NC(=O)[C@H](CC(C)C)NC(=O)[C@H](CCC(N)=O)NC(=O)[C@H](CC)NC(=O)[C@H](CC(C)C)NC(=O)[C@@H](NC(=O)[C@H](CCCN)NC(=O)[C@H](CCCNC(=N)N)NC(=O)[C@H](Cc1ccc(O)cc1)NC(=O)[C@H](CO)NC(=O)[C@@H](NC(=O)[C@@H](NC(=O)[C@H](Cc1ccccc1)NC(=O)[C@@H](NC(=O)[C@H](C)NC(=O)[C@H](CC(=O)O)NC(=O)[C@@H](C)NC(=O)CCc1ccc(O)cc1)[C@@H](C)CC)[C@@H](C)O)[C@@H](C)O)C(C)C)[C@@H](C)CC)C(=O)N[C@@H](CC(=O)O)C(=O)N[C@@H](CCCNC(=N)N)C(=O)N[C@@H](CCCCNC(=N)N)C(N)=O [Peptide P-23254, [Dat^1, D-Ala^2, Thr^8, Orn^12, Abu^15, Orn^21, Nle^27, Asp^28, Har^30]hGH-RH(1-30)NH2] (Desaminotyrosyl-[dA]DAIFTTSYR[Orn]VL[Abu]QLSAR[Orn]LLQDI[Nle]DR[hArg]-NH2)",0.07,–,–,–
"CCCC[C@H](NC(=O)[C@@H](NC(=O)[C@H](CC(=O)O)NC(=O)[C@H](CCC(N)=O)NC(=O)[C@H](CC(C)C)NC(=O)[C@H](CC(C)C)NC(=O)[C@H](CCCN)NC(=O)[C@H](CCCNC(=N)N)NC(=O)[C@H](C)NC(=O)[C@H](CO)NC(=O)[C@H](CC(C)C)NC(=O)[C@H](CCC(N)=O)NC(=O)[C@H](CC)NC(=O)[C@H](CC(C)C)NC(=O)[C@@H](NC(=O)[C@H](CCCN)NC(=O)[C@H](CCCNC(=N)N)NC(=O)[C@H](Cc1ccc(O)cc1)NC(=O)[C@H](CO)NC(=O)[C@H](CC(N)=O)NC(=O)[C@@H](NC(=O)[C@H](Cc1ccccc1)NC(=O)[C@@H](NC(=O)[C@H](C)NC(=O)[C@H](CC(=O)O)NC(=O)[C@@H](C)NC(=O)[C@H](Cc1ccc(O)cc1)NC)[C@@H](C)CC)[C@@H](C)O)C(C)C)[C@@H](C)CC)C(=O)N[C@@H](CC(=O)O)C(=O)N[C@@H](CCCNC(=N)N)C(=O)NC [Peptide P-27409, [N—Me-Tyr^1, D-Ala^2, Orn^12, Abu^15, Orn^21, Nle^27, Asp^28]hGH-RH(1-29)NH—CH3] (H-[NMeY][dA]DAIFTNSYR[Orn]VL[Abu]QLSAR[Orn]LLQDI[Nle]DR-NHMe)",–,1.06,–,unusually high responses; also recorded: especially greater growth hormone levels than hGH-RH or JI-38
"CCCC[C@H](NC(=O)[C@@H](NC(=O)[C@H](CC(=O)O)NC(=O)[C@H](CCC(N)=O)NC(=O)[C@H](CC(C)C)NC(=O)[C@H](CC(C)C)NC(=O)[C@H](CCCN)NC(=O)[C@H](CCCNC(=N)N)NC(=O)[C@H](C)NC(=O)[C@H](CO)NC(=O)[C@H](CC(C)C)NC(=O)[C@H](CCC(N)=O)NC(=O)[C@H](CC)NC(=O)[C@H](CC(C)C)NC(=O)[C@@H](NC(=O)[C@H](CCCN)NC(=O)[C@H](CCCNC(=N)N)NC(=O)[C@H](Cc1ccc(O)cc1)NC(=O)[C@H](CO)NC(=O)[C@H](CCC(N)=O)NC(=O)[C@@H](NC(=O)[C@H](Cc1ccccc1)NC(=O)[C@@H](NC(=O)[C@H](C)NC(=O)[C@H](CC(=O)O)NC(=O)[C@@H](C)NC(=O)CCc1ccc(O)cc1)[C@@H](C)CC)[C@@H](C)O)C(C)C)[C@@H](C)CC)C(=O)N[C@@H](CC(=O)O)C(=O)NCCCCNC(=N)N [Peptide P-20350, [Dat^1, D-Ala^2, Gln^8, Orn^12, Abu^15, Orn^21, Nle^27, Asp^28, Agm^29]hGH-RH(1-29)] (Desaminotyrosyl-[dA]DAIFTQSYR[Orn]VL[Abu]QLSAR[Orn]LLQDI[Nle]D-Agmatine)",–,–,–,unusually high responses; also recorded: especially greater growth hormone levels than hGH-RH or JI-38

# Now from value to compound, other results behind:
IC50 [1] [nM],IC50 [2] [nM],Relative affinity (Binding potency) vs JI-38 ([2]; relative to JI-38 = 1),SMILES,GH response after subcutaneous administration (in words) [3]
–,1.07,–,"CCCC[C@H](NC(=O)[C@@H](NC(=O)[C@H](CC(=O)O)NC(=O)[C@H](CCC(N)=O)NC(=O)[C@H](CC(C)C)NC(=O)[C@H](CC(C)C)NC(=O)[C@H](CCCN)NC(=O)[C@H](CCCNC(=N)N)NC(=O)[C@H](C)NC(=O)[C@H](CO)NC(=O)[C@H](CC(C)C)NC(=O)[C@H](CCC(N)=O)NC(=O)[C@H](CC)NC(=O)[C@H](CC(C)C)NC(=O)[C@@H](NC(=O)[C@H](CCCN)NC(=O)[C@H](CCCNC(=N)N)NC(=O)[C@H](Cc1ccc(O)cc1)NC(=O)[C@H](CO)NC(=O)[C@H](CC(N)=O)NC(=O)[C@@H](NC(=O)[C@H](Cc1ccccc1)NC(=O)[C@@H](NC(=O)[C@H](C)NC(=O)[C@H](CC(=O)O)NC(=O)[C@@H](C)NC(=O)[C@H](Cc1ccc(O)cc1)NC)[C@@H](C)CC)[C@@H](C)O)C(C)C)[C@@H](C)CC)C(=O)N[C@@H](CO)C(=O)N[C@@H](CCCNC(=N)N)C(=O)NCCCC(N)=O [Peptide P-25501, [N—Me-Tyr^1, D-Ala^2, Orn^12, Abu^15, Orn^21, Nle^27, Gab^30]hGH-RH(1-30)NH2] (H-[NMeY][dA]DAIFTNSYR[Orn]VL[Abu]QLSAR[Orn]LLQDI[Nle]SR[GABA]-NH2)",unusually high responses; also recorded: especially greater growth hormone levels than hGH-RH or JI-38
–,0.87,5.00,"CCCC[C@H](NC(=O)[C@@H](NC(=O)[C@H](CC(=O)O)NC(=O)[C@H](CCC(N)=O)NC(=O)[C@H](CC(C)C)NC(=O)[C@H](CC(C)C)NC(=O)[C@H](CCCN)NC(=O)[C@H](CCCNC(=N)N)NC(=O)[C@H](C)NC(=O)[C@H](CO)NC(=O)[C@H](CC(C)C)NC(=O)[C@H](CCC(N)=O)NC(=O)[C@H](CC)NC(=O)[C@H](CC(C)C)NC(=O)[C@@H](NC(=O)[C@H](CCCN)NC(=O)[C@H](CCCNC(=N)N)NC(=O)[C@H](Cc1ccc(O)cc1)NC(=O)[C@H](CO)NC(=O)[C@H](CC(N)=O)NC(=O)[C@@H](NC(=O)[C@H](Cc1c(F)c(F)c(F)c(F)c1F)NC(=O)[C@@H](NC(=O)[C@H](C)NC(=O)[C@H](CC(=O)O)NC(=O)[C@@H](C)NC(=O)[C@H](Cc1ccc(O)cc1)NC)[C@@H](C)CC)[C@@H](C)O)C(C)C)[C@@H](C)CC)C(=O)N[C@@H](CC(=O)O)C(=O)N[C@@H](CCCNC(=N)N)C(=O)NC [Peptide P-27404, [N—Me-Tyr^1, D-Ala^2, Fpa5^6, Orn^12, Abu^15, Orn^21, Nle^27, Asp^28]hGH-RH(1-29)NH—CH3] (H-[NMeY][dA]DAI[Phe(F5)]TNSYR[Orn]VL[Abu]QLSAR[Orn]LLQDI[Nle]DR-NHMe)",unusually high responses; also recorded: especially greater growth hormone levels than hGH-RH or JI-38
–,0.71,–,"CCCC[C@H](NC(=O)[C@@H](NC(=O)[C@H](CC(=O)O)NC(=O)[C@H](CCC(N)=O)NC(=O)[C@H](CC(C)C)NC(=O)[C@H](CC(C)C)NC(=O)[C@H](CCCN)NC(=O)[C@H](CCCNC(=N)N)NC(=O)[C@H](C)NC(=O)[C@H](CO)NC(=O)[C@H](CC(C)C)NC(=O)[C@H](CCC(N)=O)NC(=O)[C@H](CC)NC(=O)[C@H](CC(C)C)NC(=O)[C@@H](NC(=O)[C@H](CCCN)NC(=O)[C@H](CCCNC(=N)N)NC(=O)[C@H](Cc1ccc(O)cc1)NC(=O)[C@H](CO)NC(=O)[C@H](CCC(N)=O)NC(=O)[C@@H](NC(=O)[C@H](Cc1ccccc1)NC(=O)[C@@H](NC(=O)[C@H](C)NC(=O)[C@H](CC(=O)O)NC(=O)[C@@H](C)NC(=O)[C@H](Cc1ccc(O)cc1)NC)[C@@H](C)CC)[C@@H](C)O)C(C)C)[C@@H](C)CC)C(=O)N[C@@H](CC(=O)O)C(=O)N[C@@H](CCCNC(=N)N)C(=O)NCCCCC(N)=O [Peptide P-22326, [N—Me-Tyr^1, D-Ala^2, Gln^8, Orn^12, Abu^15, Orn^21, Nle^27, Asp^28, Apa^30]hGH-RH(1-30)NH2] (H-[NMeY][dA]DAIFTQSYR[Orn]VL[Abu]QLSAR[Orn]LLQDI[Nle]DR[Ava]-NH2)",unusually high responses; also recorded: especially greater growth hormone levels than hGH-RH or JI-38
